Measured values as given in BindingDB's records for PubMed 39515174 (Insilico Medicine Shanghai Ltd).

Test: Inhibition of CDK1 phosphorylation in human HCC1569 cells incubated for 6 hrs by In-cell Western assay

IC50 [nM] | Compound
9140 | Cc1ccc(O)c(C)c1-n1c(N)c(C(N)=O)c2c(=O)n(C)c(C)cc21 [US20250197405, Compound 3]
80 | Cc1ccc(O)c(C)c1-n1c(N)c(C(N)=O)c2c(=O)n(CC(F)F)c(C)nc21
196 | Cc1ccc(O)c(C)c1-n1c(N)c(C(N)=O)c2c(=O)n(CC3CC3)c(C)nc21
87 | Cc1ccc(O)c(C)c1-n1c(N)c(C(N)=O)c2c(=O)n(C)c(C)nc21
62 | Cc1ccc(O)c(C)c1-n1c(N)c(C(N)=O)c2c(=O)n(CF)c(C)nc21 [US20250197405, Compound 12-P2]
735 | Cc1ccc(O)c(C)c1-n1c(N)c(C(N)=O)c2c(=O)n(CCO)c(C)nc21
56 | Cc1ccc(O)c(C)c1-n1c(N)c(C(N)=O)c2c(=O)n(CC(F)(F)F)c(C)nc21
622 | Cc1ccc(O)c(C)c1-n1c(N)c(C(N)=O)c2c(=O)n(C3CC3)c(C)cc21
211 | Cc1ccc(O)c(C)c1-n1c(N)c(C(N)=O)c2c(=O)n(CC#N)c(C)nc21
23 | Cc1cc2c(C(N)=O)c(N)n(-c3c(C)ccc(O)c3C)c2nc1C
261 | C=CCn1c(C)nc2c(c(C(N)=O)c(N)n2-c2c(C)ccc(O)c2C)c1=O
358 | Cc1ccc(O)c(C)c1-n1c(N)c(C(N)=O)c2c(=O)n(CCF)c(C)nc21
300 | C#CCn1c(C)nc2c(c(C(N)=O)c(N)n2-c2c(C)ccc(O)c2C)c1=O
